Like-named read-outs stand apart in the source and are kept apart here.

For this test, the system named is C666-1 cells. Briefly: C666-1 cell viability single concentration (50 μM) inhibition rate (Resazurin). To be noted: for inhibition at 50 µM: Homo sapiens, C6661, 72 h, read-out: C666-1 cell viability single concentration (50 μM) inhibition rate, Ratio* (Inh %). The format is cell-based. The procedure, abridged:
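Resazurin fluorescence (560/590 nm, 3 h development) gave the proliferation inhibition rate, normalised to DMSO-treated and cell-free blank wells. Compound was tested at a single 50 μmol/L final concentration on C666-1 cells for 72 h at 37° C, with duplicate wells, after 24 h seeding.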

[1] abbreviates: 50 μM compound, 72 hours, C666-1 cells.

`O=C(O)c1cccc(C2CC2c2ccccc2)c1-n1cccc1` (stereo not drawn) [Example 393, 3-(2-phenylcyclopropyl)-2-(1H-pyrrol-1-yl)benzoic acid]: under setting [1], the inhibition at 50 µM is under 10%. Regarding `COC(=O)c1cccc(N2CC(S(=O)(=O)c3ccc(CO)cc3)C2)c1-n1cccc1` [Example 357, Methyl 3-(3-((4-(hydroxymethyl)phenyl)sulfonyl)azetidin-1-yl)-2-(1H-pyrrol-1-yl)benzoate], the inhibition at 50 µM under setting [1] is under 10%.

For `O=C(O)c1cccc(N2CC(NS(=O)(=O)C3CC3)C2)c1-n1cccc1` [Example 183, 3-(3-(cyclopropylsulfonamido)azetidin-1-yl)-2-(1H-pyrrol-1-yl)benzoic acid], the inhibition at 50 µM under setting [1] was under 10%. The same measure, in the same setting: as for `COC(=O)c1cccc(N2CC(Oc3ccc(NC(C)=O)cc3)C2)c1-n1cccc1` [Example 120, Methyl 3-(3-(4-acetylaminophenoxy)azetidin-1-yl)-2-(1H-pyrrol-1-yl)benzoate], the figure is 10 to 30%.

Take `COC(=O)c1cccc(C#CN(CC2CCN(C)CC2)S(=O)(=O)c2ccc(C)cc2)c1-n1cccc1` [Example 318, Methyl 3-(((4-methyl-N-((1-methylpiperidin-4-yl)methyl)phenyl)sulfonamido)ethynyl)-2-(1H-pyrrol-1-yl)benzoate]: the inhibition at 50 µM under setting [1] is over 50%. For `O=C(O)c1cccc(C23CC(c4ccccc4)(C2)C3)c1-n1cccc1` [Compound 6, 3-(3-phenylbicyclo[1.1.1]pentan-1-yl)-2-(1H-pyrrol-1-yl)benzoic acid], the inhibition at 50 µM under setting [1] was under 10%. As to `O=C(NC1CN(c2cccc(C(=O)O)c2-n2cccc2)C1)c1ccccc1[N+](=O)[O-]` [Example 181, 3-(3-(2-nitrobenzamido)azetidin-1-yl)-2-(1H-pyrrol-1-yl)benzoic acid], the inhibition at 50 µM under setting [1] is under 10%. On the same count and under the same terms, the same measure for `O=C(O)c1cccc(N2CC(Oc3ccc(CO)cc3)C2)c1-c1ccc2ccoc2c1` [Compound 52]: under 10%; for `O=C(O)c1cccc(N2CC(Oc3ccc(COc4ccc(F)cc4)cc3)C2)c1-n1cccc1` [Example 246, 3-(3-(4-((4-fluorophenoxy)methyl)phenoxy)azetidin-1-yl)-2-(1H-pyrrol-1-yl)benzoic acid]: under 10%. Turning to `O=C(O)c1cccc(C#CN2Cc3ccccc3S2(=O)=O)c1-n1cccc1` [Example 379], the inhibition at 50 µM under setting [1] was over 50%. For the compound `COC(=O)c1cccc(N2CC(Oc3ccc(N(S(C)(=O)=O)S(C)(=O)=O)cc3)C2)c1-n1cccc1` [Example 124, Methyl 3-(3-(4-(N-(mesyl)methylsulfonamido)phenoxy)azetidin-1-yl)-2-(1H-pyrrol-1-yl)benzoate], the inhibition at 50 µM under setting [1] fell in the range of 10 to 30%. Turning to `O=C(O)c1cccc(N2CC(Oc3ccc(CO)cc3)C2)c1-c1ccc(-c2ccccc2)cc1` [Compound 64, 6-(3-(4-(hydroxymethyl)phenoxy)azetidin-1-yl)-[1,1′:4′,1″-terphenyl]-2-formic acid], under setting [1], the inhibition at 50 µM is over 50%. `Cc1ccc(S(=O)(=O)N(C#Cc2cccc(C(=O)O)c2-n2cccc2)Cc2ccco2)cc1` [Example 315, Lithium 3-(((N-(furan-2-yl-methyl)-4-methylphenyl)sulfonamido)ethynyl)-2-(1H-pyrrol-1-yl)benzoate]: the inhibition at 50 µM was over 50%.

On to `COC(=O)c1cccc(N2CC3(CN(c4cccc(NC(C)=O)c4)C3)C2)c1N` [Compound 29, Methyl 3-(6-(3-acetylaminophenyl)-2,6-diazaspiro[3.3]heptan-2-yl)-2-aminobenzoate], for which the inhibition at 50 µM under setting [1] was 10 to 30%. As for `O=C(O)c1cccc(N2CC(Oc3ccc(Cl)cc3)C2)c1-n1cccc1` [Compound 96, 3-(3-(4-chlorophenoxy)azetidin-1-yl)-2-(1H-pyrrol-1-yl)benzoic acid], the inhibition at 50 µM under setting [1] is under 10%. On to `COC(=O)c1cccc(C#CN(Cc2ccc3c(ccn3C)c2)S(=O)(=O)c2csc3ccccc23)c1-n1cccc1` [Example 334, Methyl 3-((N-((1-methyl-1H-indol-5-yl)methyl)benzo[b]thiophen-3-sulfonamido)ethynyl)-2-(1H-pyrrol-1-yl)benzoate], for which the inhibition at 50 µM under setting [1] is over 50%. In the case of `O=C(O)c1cccc(N2CC(NC(=S)Nc3ccc(Cl)cc3)C2)c1-n1cccc1` [Example 175, 3-(3-(3-(4-chlorophenyl)thioureido)azetidin-1-yl)-2-(1H-pyrrol-1-yl)benzoic acid], the inhibition at 50 µM under setting [1] was under 10%. For the compound `O=C(O)c1cccc(N2CC(Oc3ccc(Cl)nc3)C2)c1-n1cccc1` [Compound 86, 3-(3-((6-chloropyridin-3-yl)oxy)azetidin-1-yl)-2-(1H-pyrrol-1-yl)benzoic acid], the inhibition at 50 µM under setting [1] was under 10%. As to `COC(=O)c1cccc(N2CC(Oc3cc(F)c(Oc4ccccc4)c(F)c3)C2)c1-n1cccc1` [Example 204, Methyl 3-(3-(3,5-difluoro-4-phenoxyphenoxy)azetidin-1-yl)-2-(1H-pyrrol-1-yl)benzoate], the inhibition at 50 µM under setting [1] is under 10%.

For the compound `O=C(O)c1cccc(N2CC(Oc3ccc(COC4CCOCC4)cc3)C2)c1-n1cccc1` [Example 394, 2-(1H-pyrrol-1-yl)-3-(3-(4-(((tetrahydro-2H-pyran-4-yl)oxy)methyl)phenoxy)azetidin-1-yl)benzoic acid], the inhibition at 50 µM under setting [1] was under 10%.

As to `COC(=O)c1cccc(N2CC(Oc3ccc(C(C)=O)cc3)C2)c1-n1cccc1` [Compound 87, Methyl 3-(3-(4-acetylphenoxy)azetidin-1-yl)-2-(1H-pyrrol-1-yl)benzoate], the inhibition at 50 µM under setting [1] was over 50%. For the compound `COC(=O)c1cccc(N2CC(Oc3ccc(Cl)cc3)C2)c1-n1cccc1` [Compound 95, Methyl 3-(3-(4-chlorophenoxy)azetidin-1-yl)-2-(1H-pyrrol-1-yl)benzoate], the inhibition at 50 µM under setting [1] is under 10%. In the case of `O=C(O)c1cccc(N2CC(Oc3ccc(CO)cc3)C2)c1-n1cccc1` [Compound 38, 3-(3-(4-(hydroxymethyl)phenoxy)azetidin-1-yl)-2-(1H-pyrrol-1-yl)benzoic acid], the inhibition at 50 µM under setting [1] was under 10%. For the compound `COC(=O)c1cccc(N2CC(Oc3ccc(CO)cc3)C2)c1-c1ccc2ccsc2c1` [Compound 43, Methyl 2-(benzo[b]thiophen-6-yl)-3-(3-(4-(hydroxymethyl)phenoxy)azetidin-1-yl)benzoate], the inhibition at 50 µM under setting [1] fell in the range of 10 to 30%.

As to `COC(=O)c1cccc(N2CC(OCc3cnccn3)C2)c1-n1cccc1` [Example 142], under setting [1], the inhibition at 50 µM is under 10%.

As for `COC(=O)c1cccc(C#CN2Cc3ccccc3S2(=O)=O)c1-n1cccc1` [Example 270], the inhibition at 50 µM under setting [1] is under 10%.

Turning to `COC(=O)c1cccc(N2CC(OC(=S)Nc3ccc(Cl)cc3Cl)C2)c1-n1cccc1` [Example 162, Methyl 3-(3-(((2,4-dichlorophenyl)thiocarbamoyl)oxy)azetidin-1-yl)-2-(1H-pyrrol-1-yl)benzoate], under setting [1], the inhibition at 50 µM lay in the range of 10 to 30%. As for `O=C(O)c1cccc(C#CN(Cc2ccc(F)cc2)S(=O)(=O)c2cccs2)c1-n1cccc1` [Example 327, Lithium 3-((N-(4-fluorobenzyl)thiophen-2-sulfonamido)ethynyl)-2-(1H-pyrrol-1-yl)benzoate], the inhibition at 50 µM was over 50%. For the compound `Cc1ccc(S(=O)(=O)N(C#Cc2cccc(C(=O)O)c2-n2cccc2)Cc2ccc(C(F)(F)F)cc2)cc1` [Example 347], the inhibition at 50 µM was in the range of 30 to 50%.

Turning to `COC(=O)c1cccc(N2CC(Oc3ccc(COc4cccc(F)c4)cc3)C2)c1-n1cccc1` [Example 247, Methyl 3-(3-(4-((3-fluorophenoxy)methyl)phenoxy)azetidin-1-yl)-2-(1H-pyrrol-1-yl)benzoate], under setting [1], the inhibition at 50 µM fell in the range of 10 to 30%. For the compound `O=C(O)c1cccc(N2CC(Oc3ccc(CO)cc3)C2)c1-c1ccco1` [Example 276], under setting [1], the inhibition at 50 µM was under 10%. For the compound `COC(=O)c1cccc(N2CC(Oc3ccccc3)C2)c1-n1cccc1` [Example 257, Methyl 3-((3-phenoxy)azetidin-1-yl)-2-(1H-pyrrol-1-yl)benzoate], the “C666-1 cell viability single concentration (50 μM) inhibition rate, Ratio* (Inh %)” value under setting [1] is reported as “++ (10%-30% ++)”. Consider `COC(=O)c1cccc(N2CC(Oc3ccc(CO)cc3)C2)c1-c1cccc(C(F)(F)F)c1` [Compound 59, Methyl 3′-(trifluoromethyl)-6-(3-(4-(hydroxymethyl)phenoxy)azetidin-1-yl)-[1,1′-biphenyl]-2-formate], for which, under setting [1], the inhibition at 50 µM lay in the range of 10 to 30%. On to `O=C(O)c1cccc(N2CC(Oc3ccc(CNc4ccccc4)cc3)C2)c1-n1cccc1` [Example 363], for which the inhibition at 50 µM under setting [1] is under 10%. On the same count and under the same terms, as for `COC(=O)c1cccc(N2CC(Oc3ccc(CO)cc3)C2)c1-c1ccc(Cl)cc1` [Compound 57], the figure is 10 to 30%; as for `COC(=O)c1cccc(C#CN(Cc2ccco2)S(=O)(=O)c2ccc(C)cc2)c1-n1cccc1` [Example 314, Methyl 3-(((N-(furan-2-yl-methyl)-4-methylphenyl)sulfonamido)ethynyl)-2-(1H-pyrrol-1-yl)benzoate], under 10%; as for `O=C(O)c1cccc(N2CC(Oc3ccc4cc[nH]c4c3)C2)c1-n1cccc1` [Example 104, 3-(3-((1H-indol-6-yl)oxy)azetidin-1-yl)-2-(1H-pyrrol-1-yl)benzoic acid], under 10%. With `COC(=O)c1cccc(C#CN(Cc2ccc3c(ccn3C)c2)S(=O)(=O)c2ccc3occc3c2)c1-n1cccc1` [Example 338, Methyl 3-((N-((1-methyl-1H-indol-5-yl)methyl)benzofuran-5-sulfonamido)ethynyl)-2-(1H-pyrrol-1-yl)benzoate], the inhibition at 50 µM under setting [1] is under 10%.

`COC(=O)c1cccc(N2CC(S(=O)(=O)c3ccc(C(C)C)cc3)C2)c1-n1cccc1` [Example 353, Methyl 3-(3-((4-isopropylphenyl)sulfonyl)azetidin-1-yl)-2-(1H-pyrrol-1-yl)benzoate]: the inhibition at 50 µM under setting [1] was 10 to 30%.
